The record followed here is US11219221B2 (FarmHannong Co., Ltd., priority 2017, dated 2022).

What all share (assay type): cell-based
What all share (conditions): LB agar, 37° C., light, 16 to 20 hours

Test [1] deals with CyPPO16 wild type (SEQ ID NO: 1) in PPO-deficient E. coli BT3(ΔPPO). How it is done: (§1) The mutated CyPPO gene obtained from the Example 2 was transformed to BT3 (ΔPPO) strain which is deficient of PPO activity and cultured in LB media with PPO-inhibiting herbicide, thereby examining whether growth of transformed BT3 was not inhibited.
(§2) BT3 competent cells were transformed with the pET303-CyPPO16 and pET303-CyPPO17 plasmids and those with a mutation(s) constructed in Example 2 respectively, and were cultured in LB agar media containing carbenicillin (Gold Biotechnology, Co., Ltd.).
(§3) Single colony of E. coli transformed with each CyPPO gene was cultured in 3 ml of LB broth containing carbenicillin overnight, and then was subcultured until absorbance (0D600) reached 0.5 to 1. Then, it was diluted with LB broth to OD600=0.5. Again, the diluted solution was serially diluted 4 times by a factor of one tenth.
(§4) The LB agar media (LB 25 g/l, Bacto agar 15 g/l) containing carbenicillin (100 μg/ml) and 0 to 4,000 μM of various herbicides dissolved in DMSO was prepared. Next, 10 μl of each diluted solution was dropped on the plate and cultured at 37° C. under light (Tables 7 and 9, FIGS. 2 to 6, and 18 to 22) or dark (Tables 8 and 10, FIGS. 7 to 17, and 23 to 33) for 16 to 20 hours. Then, extent of tolerance was evaluated.
(§5) The extent of herbicide tolerance of the mutated genes was evaluated by comparing that of mutated genes with that of wild type. The relative tolerance was represented with “+” as a factor of 10 times. Evaluation result was listed in Tables 7 to10 and FIGS. 2 to 33:
(§6) In Tables 7 to 10, tolerance level was presented as of tolerance of wild type and of variants equivalent to that of wild type, and was done as ‘+’ per each 10 fold resistance until ‘+++++’ as maximal resistance. (Tolerance level was evaluated by relative growth level of variants to that of wild type in the media containing highest concentration of herbicide; ‘+’=1-9 fold higher tolerance, ‘++’=10-99 fold higher tolerance, ‘+++’=100-999 fold higher tolerance, ‘++++’=1,000-9,999 fold higher tolerance, ‘+++++’=more than 10,000 fold higher tolerance)

For test [2], the system named is CyPPO17 wild type (SEQ ID NO: 3) in PPO-deficient E. coli BT3(ΔPPO). How it is done: as §1, §2, §3, §4, §5, §6
The test system of test [3] is CyPPO16 (SEQ ID NO: 1) variant A162C in PPO-deficient E. coli BT3(ΔPPO). Here is the method:
as §1, §2, §3, §4
(§7) The extent of herbicide tolerance of the mutated genes was evaluated by comparing that of mutated genes with that of wild type. The relative tolerance was represented with “+” as a factor of 10 times.
(§8) In Tables 7 to 10, tolerance level was presented as of tolerance of wild type and of variants equivalent to that of wild type, and was done as ‘+’ per each 10 fold resistance until ‘+++++’ as maximal resistance.

The subject of test [4] is CyPPO16 (SEQ ID NO: 1) variant A162L in PPO-deficient E. coli BT3(ΔPPO). How it is done: as §1, §2, §3, §4, §7, §8
Test [5] has as its system CyPPO16 (SEQ ID NO: 1) variant F360C in PPO-deficient E. coli BT3(ΔPPO). How it is done:
as §1, §2, §3, §4, §7, §8

In test [6] the test system is CyPPO16 (SEQ ID NO: 1) variant F360I in PPO-deficient E. coli BT3(ΔPPO). How it is done:
as §1, §2, §3, §4, §7, §8

Test [7] has as its system CyPPO16 (SEQ ID NO: 1) variant F360L in PPO-deficient E. coli BT3(ΔPPO). Here is the method: as §1, §2, §3, §4, §7, §8
The test system of test [8] is CyPPO16 (SEQ ID NO: 1) variant F360M in PPO-deficient E. coli BT3(ΔPPO). How it is done: as §1, §2, §3, §4, §7, §8
In test [9] the test system is CyPPO16 (SEQ ID NO: 1) variant F360V in PPO-deficient E. coli BT3(ΔPPO). How it is done:
as §1, §2, §3, §4, §7, §8

Test [10] has as its system CyPPO16 (SEQ ID NO: 1) variant V305M in PPO-deficient E. coli BT3(ΔPPO). Here is the method: as §1, §2, §3, §4, §7, §8
Test [11] relates to CyPPO17 (SEQ ID NO: 3) variant A166C in PPO-deficient E. coli BT3(ΔPPO). How it is done: as §1, §2, §3, §4, §7, §8
Test [12] deals with CyPPO17 (SEQ ID NO: 3) variant A166L in PPO-deficient E. coli BT3(ΔPPO). How it is done: as §1, §2, §3, §4, §7, §8
Test [13] relates to CyPPO17 (SEQ ID NO: 3) variant F359C in PPO-deficient E. coli BT3(ΔPPO). Here is the method: as §1, §2, §3, §4, §7, §8
The test system of test [14] is CyPPO17 (SEQ ID NO: 3) variant F359I in PPO-deficient E. coli BT3(ΔPPO). Here is the method:
as §1, §2, §3, §4, §7, §8

In test [15] the test system is CyPPO17 (SEQ ID NO: 3) variant F359L in PPO-deficient E. coli BT3(ΔPPO). Here is the method:
as §1, §2, §3, §4, §7, §8

Test [16] concerns CyPPO17 (SEQ ID NO: 3) variant F359M in PPO-deficient E. coli BT3(ΔPPO). Here is the method: as §1, §2, §3, §4, §7, §8
For test [17], the system named is CyPPO17 (SEQ ID NO: 3) variant V304M in PPO-deficient E. coli BT3(ΔPPO). Here is the method: as §1, §2, §3, §4, §7, §8

Turning to `O=C(O)c1cc(Oc2ccc(C(F)(F)F)cc2Cl)ccc1[N+](=O)[O-]` [acifluorfen], the “Herbicide tolerance (relative to wild type)” value in test [1] is listed as “−”; in test [2], “−”; in [3] it was “++ (10-99 fold higher tolerance)”; in test [4], “++ (10-99 fold higher tolerance)”; in test [5] it was “++ (10-99 fold higher tolerance)”; in test [6], “+ (1-9 fold higher tolerance)”. Also, the “Herbicide tolerance (relative to wild type)” value in test [7] is given as “+ (1-9 fold higher tolerance)”; in test [8] it was “+ (1-9 fold higher tolerance)”; in test [9], “+ (1-9 fold higher tolerance)”; in test [10] it was “++ (10-99 fold higher tolerance)”; in [11] it was “+++ (100-999 fold higher tolerance)”; in [12] it was “+++ (100-999 fold higher tolerance)”. For the same compound, the “Herbicide tolerance (relative to wild type)” value in test [13] was “+ (1-9 fold higher tolerance)”; in test [14], “+ (1-9 fold higher tolerance)”; in [15] it was “+ (1-9 fold higher tolerance)”; in test [16] it was “+++ (100-999 fold higher tolerance)”; in test [17] it was “+++ (100-999 fold higher tolerance)”.

With `CS(=O)(=O)NC(=O)c1cc(Oc2ccc(C(F)(F)F)cc2Cl)ccc1[N+](=O)[O-]` [fomesafen], the “Herbicide tolerance (relative to wild type)” value in test [1] is “−”; in test [2], “−”; in test [3], “++ (10-99 fold higher tolerance)”; in test [4] it was “++ (10-99 fold higher tolerance)”; in test [5] it was “++ (10-99 fold higher tolerance)”; in test [6], “+ (1-9 fold higher tolerance)”. For the same compound, the “Herbicide tolerance (relative to wild type)” value in [7] was “+++ (100-999 fold higher tolerance)”; in [8], “+++ (100-999 fold higher tolerance)”; in test [9], “+ (1-9 fold higher tolerance)”; in test [10] it was “++ (10-99 fold higher tolerance)”; in test [11], “+ (1-9 fold higher tolerance)”; in [12], “++ (10-99 fold higher tolerance)”. Further, the “Herbicide tolerance (relative to wild type)” value was “+ (1-9 fold higher tolerance)” in [13]; “+ (1-9 fold higher tolerance)” in [14]; “+ (1-9 fold higher tolerance)” in test [15]; “++ (10-99 fold higher tolerance)” in [16]; “++ (10-99 fold higher tolerance)” in test [17].

`CC(C)=C1OC(=O)N(c2cc(OC3CCCC3)c(Cl)cc2F)C1=O` [pentoxazone]: the “Herbicide tolerance (relative to wild type)” value in test [1] was “−”; in [2] it was “−”; in test [3], “++ (10-99 fold higher tolerance)”; in test [4], “++ (10-99 fold higher tolerance)”; in [5], “++ (10-99 fold higher tolerance)”; in test [6], “+ (1-9 fold higher tolerance)”. For the same compound, the “Herbicide tolerance (relative to wild type)” value in test [7] was “+ (1-9 fold higher tolerance)”; in test [8] it was “+ (1-9 fold higher tolerance)”; in test [9], “+ (1-9 fold higher tolerance)”; in [10], “+ (1-9 fold higher tolerance)”; in test [11], “+ (1-9 fold higher tolerance)”; in test [12], “++ (10-99 fold higher tolerance)”. In addition, the “Herbicide tolerance (relative to wild type)” value is reported as “+ (1-9 fold higher tolerance)” in [13]; “++ (10-99 fold higher tolerance)” in test [14]; “+ (1-9 fold higher tolerance)” in [15]; “++ (10-99 fold higher tolerance)” in [16]; “+ (1-9 fold higher tolerance)” in test [17].

As for `C#CCN(C)c1c(C#N)cnn1-c1nn2c(c1Cl)CCCC2` [pyraclonil], the “Herbicide tolerance (relative to wild type)” value is on record as “−” in [1]; “−” in test [2]; “++ (10-99 fold higher tolerance)” in test [3]; “++ (10-99 fold higher tolerance)” in test [4]; “++ (10-99 fold higher tolerance)” in test [5]; “+ (1-9 fold higher tolerance)” in test [6]. Moreover, the “Herbicide tolerance (relative to wild type)” value in [7], in test [8], in test [9], in test [10], in test [12] and in [13] was “+ (1-9 fold higher tolerance)” throughout. For the same compound, the “Herbicide tolerance (relative to wild type)” value in test [14], in test [15] and in test [16] was “+ (1-9 fold higher tolerance)” throughout.
